# Measured values taken from PubChem BioAssay (NCI).
#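 Test compounds were applied to cells in 96-well plates for 48 hours at 5 doses. TGI: total growth inhibition.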 Where a SMILES comes first, the peptide text is derived from it. [ ]: non-standard residue; d: D form. The star is where a group is joined. Bn2Val = CC(C)[C@@H](C(=O)*)N(Cc1ccccc1)Cc1ccccc1; NHPiperonyl = c1cc2c(cc1CN*)OCO2; NMeV = CN[C@H](C(=O)O)C(C)C; dNMeA = CN[C@H](C)C(=O)O
# Key:
# Test in all cases: growth of human tumour cells (NCI), 48 h
# [1] = system: MCF7 breast
# [2] = system: XF 498 CNS
# [3] = system: DLD-1 colon
# [4] = system: DMS 114 small cell lung
# [5] = system: DMS 273 small cell lung
# [6] = system: M19-MEL melanoma
# [7] = system: LXFL 529 NSCLC
# [8] = system: KM20L2 colon
# [9] = system: HOP-18 NSCLC
# [10] = system: SNB-78 CNS
# [11] = system: RXF-631 renal
smiles,measurement,setting,value
Cn1cc(S(=O)(=O)NC(=O)Nc2ccc(Cl)cc2)c(=O)c2ccc(Cl)cc21,TGI,[1],> 100 µM
Clc1ccc(/C=c2\nc(-c3ccccc3)n3c2nc2ccccc23)cc1,TGI,[1],> 100 µM
COc1cc(/C=C2/CCCc3ccccc3C2=O)cc(OC)c1OC,TGI,[1],> 63.9 µM
O=C1CC(C(O)C(O)C(O)CO)CC(=O)N1 (stereo unspecified),TGI,[1],> 100 µM
Nc1cc(N2CCOCC2)nc(=O)n1-c1ccccc1,TGI,[1],> 100 µM
CCOC(=O)C1C(c2ccco2)C2(C#N)C(=N)OC1(C)C2(C#N)C#N (stereo unspecified),TGI,[1],> 100 µM
CC(=O)N(C(=O)CC(=O)NNCc1ccccc1Cl)c1ccc(Cl)cc1,TGI,[1],> 10 µM
CC1OC1P(=O)(O)O (stereo unspecified),TGI,[1],> 100 µM
[N-]=[N+]=CC(=O)OC1CCc2ccccc21 (stereo unspecified),TGI,[1],> 100 µM
CC1(OCc2ccccc2)C(=O)N2C1N(C(=O)OCc1ccccc1)CC2(C)C (stereo unspecified),TGI,[2],75 µM
same,TGI,[3],> 100 µM
same,TGI,[4],> 100 µM
same,TGI,[5],> 100 µM
same,TGI,[6],> 100 µM
same,TGI,[7],> 100 µM
same,TGI,[8],> 100 µM
NNC(=O)CC(=O)Nc1ccccc1Cl,TGI,[1],> 100 µM
O=C1c2ccccc2-c2nc(-c3cccs3)cc3c2c1nc1ccccc13,TGI,[1],29.2 µM
Cc1cccc(-c2cccc(COCc3cccc(-c4cccc(CO)n4)n3)n2)n1,TGI,[1],> 50 µM
CCOP(=O)(OCC)c1cc2cc(O)ccc2oc1=O,TGI,[1],> 100 µM
NCc1ccc(O)c(O)c1O,TGI,[2],56.4 µM
same,TGI,[3],37.2 µM
same,TGI,[4],42.8 µM
same,TGI,[5],31 µM
same,TGI,[9],> 100 µM
same,TGI,[6],26.9 µM
same,TGI,[7],30.6 µM
same,TGI,[1],36.3 µM
same,TGI,[8],> 80.9 µM
same,TGI,[10],> 100 µM
CCCCC1CCCCCCc2[nH]c(/C=C3\N=C(c4ccc[nH]4)C=C3OC)cc21 (stereo unspecified),TGI,[1],1.11 µM
CC(C)C(C)C(O)C(O)C(C)C1CCC2C3COC(=O)C4CC(O)C(O)CC4(C)C3CCC12C (stereo unspecified),TGI,[1],> 100 µM
CSC1=C(C(=O)N(COCC[Si](C)(C)C)c2ccccc2Br)CCC(C(C)(C)C)C1 (stereo unspecified),TGI,[1],28 µM
O=C1CSC(c2c[nH]c3ccccc23)N1c1cccc([N+](=O)[O-])c1 (stereo unspecified),TGI,[1],> 100 µM
CC(=O)N(CN1C(=O)CCC1C(=O)O)c1ccc(C)cc1 (stereo unspecified),TGI,[1],> 100 µM
COc1c(C(=O)/C(=N/Nc2cccc(Cl)c2)C(C)=O)c(O)c(OC)c2occc12,TGI,[1],> 100 µM
O=C(N/C(=C\NC1=NCCS1)C(=O)N1CSC[C@@H]1C(=O)O)c1ccccc1,TGI,[1],> 100 µM
C=CC(C)CCC(C/C=C(\C)CCCC(C)C)C(=C)CCCC(C)C (stereo unspecified),TGI,[1],> 100 µM
OC1C2CCC3C2CC(C(O)(c2ccccc2)c2ccccc2)C13 (stereo unspecified),TGI,[1],> 100 µM
CC(C)NC1CCCCC2c3cc(F)ccc3[C@]12O (stereo partly specified),TGI,[3],> 100 µM
same,TGI,[4],> 100 µM
same,TGI,[5],> 100 µM
same,TGI,[9],> 100 µM
same,TGI,[6],> 100 µM
same,TGI,[7],> 100 µM
same,TGI,[8],> 100 µM
same,TGI,[10],> 100 µM
Nc1nc(Cl)cc(NCC2(CO)CC(CCCc3ccccc3)C2)n1 (stereo unspecified),TGI,[1],> 100 µM
CC(=O)OC1COC(n2c(O)c(N=Nc3ccc([N+](=O)[O-])cc3)c3cc(Br)c([N+](=O)[O-])cc32)C(OC(C)=O)C1OC(C)=O (stereo unspecified),TGI,[2],> 100 µM
same,TGI,[3],> 100 µM
same,TGI,[5],> 100 µM
same,TGI,[9],> 100 µM
same,TGI,[6],> 100 µM
same,TGI,[11],> 100 µM
same,TGI,[7],> 100 µM
same,TGI,[8],> 100 µM
same,TGI,[10],75.8 µM
O=C(O)COc1cc(-c2ccccc2F)nc2cc3c(cc12)OCO3,TGI,[1],> 100 µM
CCOc1ccccc1NC(=O)CSc1nnc(Cc2ccccc2)o1,TGI,[3],55.4 µM
same,TGI,[4],32.4 µM
same,TGI,[5],60.2 µM
same,TGI,[9],54.7 µM
same,TGI,[6],> 100 µM
same,TGI,[7],32.1 µM
same,TGI,[8],> 100 µM
same,TGI,[10],> 100 µM
CC1(C)CC(=O)c2c([nH]c(=S)c(C#N)c2-c2ccc(Br)cc2)C1,TGI,[1],> 100 µM
O=[N+]([O-])c1ccc(CSc2c3ccccc3nc3ccccc23)cc1,TGI,[1],> 100 µM
c1cc2c(cc1NC1=NCCO1)CCCC2,TGI,[1],41.5 µM
COC(=O)c1c(O)ccc2c1c1cc3ccccc3c(O)c1n2Cc1ccccc1Cl,TGI,[1],> 100 µM
C=C1CC(COc2ccc3c(C)c(Cl)c(=O)oc3c2)(c2ccccc2)OC1=O (stereo unspecified),TGI,[1],5.14 µM
CC(=O)OC(=C(C#N)C#N)c1nccnc1C(=O)O,TGI,[1],> 100 µM
CCOC(=O)CC[C@H](NC(=O)c1ccc(CNc2nc3cc(C(F)(F)F)ccc3nc2C(=O)OCC)cc1)C(=O)OCC,TGI,[1],> 51.9 µM
CC(C)[C@H](NC(=O)[C@H](C(C)C)N(Cc1ccccc1)Cc1ccccc1)C(=O)N(C)[C@H](C(=O)N1CCC[C@H]1C(=O)N(C)[C@H](C)C(=O)NCc1ccc2c(c1)OCO2)C(C)C (Bn2Val-V[NMeV]P[dNMeA]-NHPiperonyl),TGI,[1],7.55 µM
COc1ccc(OC)c2sc(N3C(=O)/C(=C/c4ccc(SC)cc4)N=C3c3ccccc3)nc12,TGI,[1],48.1 µM
CCC(C#N)NCc1ccc(CNC(C#N)CC)cc1 (stereo unspecified),TGI,[1],> 100 µM
S=C(Nc1ccc(Cl)cc1)c1ccc(CN2CCCCC2)s1,TGI,[1],61.9 µM
O=C1OCCC12CN(Cc1ccccc1)N=N2 (stereo unspecified),TGI,[1],> 100 µM
CN(C)CCNC(=O)c1ccccc1Nc1c(Cl)cccc1Cl,TGI,[2],22 µM
same,TGI,[3],37.1 µM
same,TGI,[5],30.5 µM
same,TGI,[6],24.5 µM
same,TGI,[7],32.4 µM
same,TGI,[8],23.4 µM
same,TGI,[10],33.8 µM
Cc1nc2ccc(F)cc2c2c1CCN2c1ccccc1,TGI,[1],64.7 µM
